In PubChem BioAssay (NCI):
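Briefly, cells in 96-well plates were exposed to five compound concentrations for 48 h, and endpoints were estimated by linear interpolation. Definition used: TGI = concentration required for complete inhibition of growth.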

Experiments:
Assay in all cases: NCI tumour cell line growth inhibition, 48 h
LOX IMVI melanoma = system: LOX IMVI melanoma
SK-MEL-5 melanoma = system: SK-MEL-5 melanoma
EKVX NSCLC = system: EKVX NSCLC
M14 melanoma = system: M14 melanoma
SF-268 CNS = system: SF-268 CNS
SNB-75 CNS = system: SNB-75 CNS
M19-MEL melanoma = system: M19-MEL melanoma
LXFL 529 NSCLC = system: LXFL 529 NSCLC
HCT-116 colon = system: HCT-116 colon
A549 NSCLC = system: A549 NSCLC
IGROV1 ovarian = system: IGROV1 ovarian
OVCAR-5 ovarian = system: OVCAR-5 ovarian
RXF-631 renal = system: RXF-631 renal
RXF 393 renal = system: RXF 393 renal
SF-295 CNS = system: SF-295 CNS
DMS 273 small cell lung = system: DMS 273 small cell lung
NCI-H226 lung = system: NCI-H226 lung
K-562 leukemia = system: K-562 leukemia
RPMI-8226 leukemia = system: RPMI-8226 leukemia
SF-539 CNS = system: SF-539 CNS
MOLT-4 leukemia = system: MOLT-4 leukemia
KM12 colon = system: KM12 colon
UO-31 renal = system: UO-31 renal
HOP-62 NSCLC = system: HOP-62 NSCLC
NCI-H460 lung = system: NCI-H460 lung
UACC-62 melanoma = system: UACC-62 melanoma
ACHN renal = system: ACHN renal
KM20L2 colon = system: KM20L2 colon
SK-MEL-2 melanoma = system: SK-MEL-2 melanoma
DLD-1 colon = system: DLD-1 colon
A498 renal = system: A498 renal
OVCAR-8 ovarian = system: OVCAR-8 ovarian
786-0 renal = system: 786-0 renal
UACC-257 melanoma = system: UACC-257 melanoma
CAKI-1 renal = system: CAKI-1 renal
SNB-78 CNS = system: SNB-78 CNS
DMS 114 small cell lung = system: DMS 114 small cell lung
CCRF-CEM leukemia = system: CCRF-CEM leukemia
NCI-H522 lung = system: NCI-H522 lung
HCC-2998 colon = system: HCC-2998 colon
U251 CNS = system: U251 CNS
SK-OV-3 ovarian = system: SK-OV-3 ovarian
HT29 colon = system: HT29 colon
MALME-3M melanoma = system: MALME-3M melanoma
HCT-15 colon = system: HCT-15 colon
TK-10 renal = system: TK-10 renal
COLO 205 colon = system: COLO 205 colon
XF 498 CNS = system: XF 498 CNS
SW-620 colon = system: SW-620 colon
OVCAR-3 ovarian = system: OVCAR-3 ovarian
SN12C renal = system: SN12C renal
SNB-19 CNS = system: SNB-19 CNS
HL-60(TB) leukemia = system: HL-60(TB) leukemia
HOP-92 NSCLC = system: HOP-92 NSCLC
SR leukemia = system: SR leukemia
NCI-H23 lung = system: NCI-H23 lung
SK-MEL-28 melanoma = system: SK-MEL-28 melanoma
HOP-18 NSCLC = system: HOP-18 NSCLC
OVCAR-4 ovarian = system: OVCAR-4 ovarian

Structure (SMILES): CNc1nnnn1C1OC(CO)C(O)C1O (stereo not given)
- TGI (LOX IMVI melanoma): > 100 µM
- TGI (SK-MEL-5 melanoma): > 100 µM
- TGI (EKVX NSCLC): > 100 µM
- TGI (M14 melanoma): > 100 µM
- TGI (SF-268 CNS): > 100 µM
- TGI (SNB-75 CNS): > 100 µM
- TGI (M19-MEL melanoma): > 100 µM
- TGI (LXFL 529 NSCLC): > 100 µM
- TGI (HCT-116 colon): > 100 µM
- TGI (A549 NSCLC): > 100 µM
- TGI (IGROV1 ovarian): > 100 µM
- TGI (OVCAR-5 ovarian): > 100 µM
- TGI (RXF-631 renal): > 100 µM
- TGI (RXF 393 renal): > 100 µM
- TGI (SF-295 CNS): > 100 µM
- TGI (DMS 273 small cell lung): > 100 µM
- TGI (NCI-H226 lung): > 100 µM
- TGI (K-562 leukemia): > 100 µM
- TGI (RPMI-8226 leukemia): > 100 µM
- TGI (SF-539 CNS): > 100 µM
- TGI (MOLT-4 leukemia): > 100 µM
- TGI (KM12 colon): > 100 µM
- TGI (UO-31 renal): > 100 µM
- TGI (HOP-62 NSCLC): > 100 µM
- TGI (NCI-H460 lung): > 100 µM
- TGI (UACC-62 melanoma): > 100 µM
- TGI (ACHN renal): > 100 µM
- TGI (KM20L2 colon): > 100 µM
- TGI (SK-MEL-2 melanoma): > 100 µM
- TGI (DLD-1 colon): > 100 µM
- TGI (A498 renal): > 100 µM
- TGI (OVCAR-8 ovarian): > 100 µM
- TGI (786-0 renal): > 100 µM
- TGI (UACC-257 melanoma): > 100 µM
- TGI (CAKI-1 renal): > 100 µM
- TGI (SNB-78 CNS): > 100 µM
- TGI (DMS 114 small cell lung): > 100 µM
- TGI (CCRF-CEM leukemia): > 100 µM
- TGI (NCI-H522 lung): > 100 µM
- TGI (HCC-2998 colon): > 100 µM
- TGI (U251 CNS): > 100 µM
- TGI (SK-OV-3 ovarian): > 100 µM
- TGI (HT29 colon): > 100 µM
- TGI (MALME-3M melanoma): > 100 µM
- TGI (HCT-15 colon): > 100 µM
- TGI (TK-10 renal): > 100 µM
- TGI (COLO 205 colon): > 100 µM
- TGI (XF 498 CNS): 83.4 µM
- TGI (SW-620 colon): > 100 µM
- TGI (OVCAR-3 ovarian): > 100 µM
- TGI (SN12C renal): > 100 µM

Structure (SMILES): c1ccc(-c2nc3sccn3n2)cc1
- TGI (EKVX NSCLC): > 100 µM
- TGI (M14 melanoma): > 100 µM
- TGI (SF-268 CNS): > 100 µM
- TGI (M19-MEL melanoma): > 100 µM
- TGI (HCT-116 colon): > 100 µM
- TGI (A549 NSCLC): > 100 µM
- TGI (IGROV1 ovarian): > 100 µM
- TGI (OVCAR-5 ovarian): > 100 µM
- TGI (RXF-631 renal): > 100 µM
- TGI (RXF 393 renal): > 100 µM
- TGI (SF-295 CNS): > 100 µM
- TGI (DMS 273 small cell lung): > 100 µM
- TGI (K-562 leukemia): > 100 µM
- TGI (MOLT-4 leukemia): > 100 µM
- TGI (KM12 colon): > 100 µM
- TGI (UO-31 renal): > 100 µM
- TGI (HOP-62 NSCLC): > 100 µM
- TGI (NCI-H460 lung): > 100 µM
- TGI (UACC-62 melanoma): > 100 µM
- TGI (SNB-19 CNS): > 100 µM
- TGI (ACHN renal): > 100 µM
- TGI (HL-60(TB) leukemia): > 100 µM
- TGI (HOP-92 NSCLC): > 100 µM
- TGI (A498 renal): > 100 µM
- TGI (OVCAR-8 ovarian): > 100 µM
- TGI (UACC-257 melanoma): > 100 µM
- TGI (DMS 114 small cell lung): > 100 µM
- TGI (CCRF-CEM leukemia): > 100 µM
- TGI (NCI-H522 lung): > 100 µM
- TGI (U251 CNS): > 100 µM
- TGI (SK-OV-3 ovarian): > 100 µM
- TGI (HT29 colon): > 100 µM
- TGI (SR leukemia): > 100 µM
- TGI (TK-10 renal): > 100 µM
- TGI (NCI-H23 lung): > 100 µM
- TGI (SK-MEL-28 melanoma): > 100 µM

Structure (SMILES): Cc1cc2cc(Cl)ccc2nc1C(=O)c1ccccc1
- TGI (LOX IMVI melanoma): > 100 µM
- TGI (SK-MEL-5 melanoma): > 100 µM
- TGI (M14 melanoma): > 100 µM
- TGI (SF-268 CNS): > 100 µM
- TGI (SNB-75 CNS): 81.9 µM
- TGI (M19-MEL melanoma): > 100 µM
- TGI (LXFL 529 NSCLC): > 100 µM
- TGI (HCT-116 colon): > 100 µM
- TGI (A549 NSCLC): > 100 µM
- TGI (IGROV1 ovarian): > 100 µM
- TGI (OVCAR-5 ovarian): > 100 µM
- TGI (RXF-631 renal): > 100 µM
- TGI (RXF 393 renal): > 100 µM
- TGI (SF-295 CNS): > 100 µM
- TGI (DMS 273 small cell lung): > 100 µM
- TGI (NCI-H226 lung): > 100 µM
- TGI (K-562 leukemia): > 100 µM
- TGI (RPMI-8226 leukemia): > 100 µM
- TGI (SF-539 CNS): > 100 µM
- TGI (MOLT-4 leukemia): > 100 µM
- TGI (KM12 colon): > 100 µM
- TGI (UO-31 renal): > 100 µM
- TGI (HOP-62 NSCLC): > 100 µM
- TGI (UACC-62 melanoma): > 100 µM
- TGI (SNB-19 CNS): > 100 µM
- TGI (ACHN renal): > 100 µM
- TGI (KM20L2 colon): > 100 µM
- TGI (SK-MEL-2 melanoma): > 100 µM
- TGI (HOP-18 NSCLC): > 100 µM
- TGI (DLD-1 colon): > 100 µM
- TGI (OVCAR-8 ovarian): > 100 µM
- TGI (786-0 renal): > 100 µM
- TGI (UACC-257 melanoma): > 100 µM
- TGI (OVCAR-4 ovarian): > 100 µM
- TGI (CAKI-1 renal): > 100 µM
- TGI (SNB-78 CNS): > 100 µM
- TGI (DMS 114 small cell lung): > 100 µM
- TGI (NCI-H522 lung): > 100 µM
- TGI (HCC-2998 colon): > 100 µM
- TGI (U251 CNS): > 100 µM
- TGI (SR leukemia): > 100 µM
- TGI (MALME-3M melanoma): > 100 µM
- TGI (HCT-15 colon): > 100 µM
- TGI (TK-10 renal): > 100 µM
- TGI (COLO 205 colon): > 100 µM
- TGI (XF 498 CNS): > 100 µM
- TGI (NCI-H23 lung): > 100 µM
- TGI (SW-620 colon): > 100 µM
- TGI (OVCAR-3 ovarian): > 100 µM
- TGI (SN12C renal): > 100 µM
- TGI (SK-MEL-28 melanoma): > 100 µM

Structure (SMILES): O=C1OC(c2ccccc2)C2CC3CC4(CCC3CN12)OCCO4 (stereo not given)
- TGI (LOX IMVI melanoma): > 100 µM
- TGI (SK-MEL-5 melanoma): > 100 µM
- TGI (EKVX NSCLC): > 100 µM
- TGI (M14 melanoma): > 100 µM
- TGI (SF-268 CNS): > 100 µM
- TGI (SNB-75 CNS): > 100 µM
- TGI (LXFL 529 NSCLC): > 100 µM
- TGI (HCT-116 colon): > 100 µM
- TGI (A549 NSCLC): > 100 µM
- TGI (IGROV1 ovarian): > 100 µM
- TGI (OVCAR-5 ovarian): > 100 µM
- TGI (RXF-631 renal): > 100 µM
- TGI (RXF 393 renal): > 100 µM
- TGI (SF-295 CNS): > 100 µM
- TGI (DMS 273 small cell lung): > 100 µM
- TGI (NCI-H226 lung): > 100 µM
- TGI (K-562 leukemia): > 100 µM
- TGI (RPMI-8226 leukemia): > 100 µM
- TGI (SF-539 CNS): > 100 µM
- TGI (MOLT-4 leukemia): > 100 µM
- TGI (KM12 colon): > 100 µM
- TGI (UO-31 renal): > 100 µM
- TGI (HOP-62 NSCLC): > 100 µM
- TGI (NCI-H460 lung): > 100 µM
- TGI (UACC-62 melanoma): > 100 µM
- TGI (SNB-19 CNS): > 100 µM
- TGI (KM20L2 colon): > 100 µM
- TGI (HL-60(TB) leukemia): > 100 µM
- TGI (SK-MEL-2 melanoma): > 100 µM
- TGI (HOP-92 NSCLC): > 100 µM
- TGI (A498 renal): > 100 µM
- TGI (OVCAR-8 ovarian): > 100 µM
- TGI (786-0 renal): > 100 µM
- TGI (UACC-257 melanoma): > 100 µM
- TGI (OVCAR-4 ovarian): > 100 µM
- TGI (CAKI-1 renal): > 100 µM
- TGI (SNB-78 CNS): > 100 µM
- TGI (CCRF-CEM leukemia): > 100 µM
- TGI (NCI-H522 lung): 1.57 µM
- TGI (U251 CNS): > 100 µM
- TGI (SK-OV-3 ovarian): > 100 µM
- TGI (HT29 colon): > 100 µM
- TGI (SR leukemia): > 100 µM
- TGI (HCT-15 colon): > 100 µM
- TGI (TK-10 renal): > 100 µM
- TGI (COLO 205 colon): > 100 µM
- TGI (XF 498 CNS): > 100 µM
- TGI (NCI-H23 lung): > 100 µM
- TGI (SW-620 colon): > 100 µM
- TGI (OVCAR-3 ovarian): > 100 µM
- TGI (SN12C renal): > 100 µM
- TGI (SK-MEL-28 melanoma): > 100 µM
